# Test results taken from patent EP1772146A1, “Polyunsaturated fatty acids as bace inhibitors” (Neuropharma, S.A., priority 2005, dated 2007).
# Where two headings read alike, the source gives them in different places.
# Target: T1, rhBACE-1 β-Secretase recombinant human (Homo sapiens, UniProt P56817)
# T1 construct: purchased R&D Systems 931-AS
# Test: BACE assay (FRET, fluorogenic peptide substrate cleavage)
# Format: biochemical
# Conditions: for activity at 10 µM: read-out: % BACE Activity (10^-5 M)
# Excerpt: The aim of this assay is to determine if a compound, either synthetic or of marine origin, is a BACE-1 inhibitor, to avoid the formation of Aβ. This assay is based on FRET technology (Fluorescence Resonance Energy Transfer). FRET is used to measure cleavage of a peptide substrate, among other uses. […] When a substrate peptide cleavage occurs, the energy balance is broken and all the donor fluorescence can be observed. The increase in fluorescence is linearly related to the rate of proteolysis (Gordon, GW et al., 1998). In this assay the reaction occurs between an enzyme, purified BACE-1, and a fluorogenic peptidic substrate who present the "Swedish mutation". The peptide cleavage by BACE-1 produces fluorescence energy and enzymatic activity can be quantified. The reagents which are used in this assay are the following: • rhBACE-1 β-Secretase recombinant human (R&D Systems. Ref. 931-AS). • Fluorogenic Peptide Substrate IV (R&D Systems. Ref. ES004). • B-SECRETASE INHIBITOR H-4848. (BACHEM. Ref. H-4848.0001). • FLUOSTAR OPTIMA plate reader with 320 nm excitation filter and 405 nm emission filter (Biogen cientifica). • Black microwell plate, 96 wells (Nunc. Ref. 00006877). Supplier: Dismadel. • Sodium acetate.
# The assay is carried out in a 96 wells microplate. The final concentration of substrate is 3,5 µM per well, and the enzyme concentration is 0,5 µg/ml. The final volume of the assay is 100 µl per well and all reagents are diluted in Reaction Buffer. The compounds are tested at a concentration of 10^-5. The control in the assay is the commercial inhibitor β-Secretase inhibitor H-4848, which is tested at 300 nM. All the samples and controls are studied by duplicate.
# The plate is mixed gently and changes in the fluorescence are measured using the plate reader, with "BACE" protocol. The temperature should be preferably maintained between 25 and 30 °C. Measurements are carried out every ten minutes during an hour. The first measure is subtracted from the last to calculate the fluorescence increase, evaluating the enzymatic activity. The 100% activity is calculated as the mean of the results of wells without sample or inhibitor.
# Further information regarding this assay may be found in the following references, which are incorporated by reference into the present application: • Andrau, D et al; "BACE1- and BACE2-expressing human cells: characterization of beta-Amyloid precursor protein-derived catabolites, design of a novel fluorimetric assay, and identification of new in vitro inhibitors". J Biol Chem. 2003 Jul 11;278(28):25859-66. Gordon, GW et al; "Quantitative fluorescence resonance energy transfer measurements using fluorescence microscopy." Biophys J. 1998 May; 74:2702-13.
# [1] = comparative examples (derivatives of arachidonic acid) at 10^-5 M, mean results, remaining enzyme activity, 100% = wells without sample or inhibitor
# [2] = fatty acids of formula (I) at 10^-5 M, mean results, remaining enzyme activity, 100% = wells without sample or inhibitor
# T1 sequence (P56817 46-457 limits assumed): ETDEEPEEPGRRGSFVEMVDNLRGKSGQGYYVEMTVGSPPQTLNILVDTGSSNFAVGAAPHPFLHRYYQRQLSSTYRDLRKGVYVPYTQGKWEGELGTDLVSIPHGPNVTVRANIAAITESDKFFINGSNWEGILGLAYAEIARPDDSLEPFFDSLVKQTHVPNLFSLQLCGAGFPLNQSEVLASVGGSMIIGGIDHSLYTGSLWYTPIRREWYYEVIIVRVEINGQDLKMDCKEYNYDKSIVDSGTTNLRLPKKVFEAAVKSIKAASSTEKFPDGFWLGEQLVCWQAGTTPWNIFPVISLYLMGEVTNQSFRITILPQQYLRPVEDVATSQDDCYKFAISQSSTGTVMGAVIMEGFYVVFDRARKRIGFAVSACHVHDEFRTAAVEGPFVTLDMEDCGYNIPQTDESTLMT
Compound,activity at 10 µM [1] [%],activity at 10 µM [%],other results
"CCCCCC=CCC=CCC=CCC=CCCCC(=O)NCCO [Anandamide, Icosa-5,8,11,14-tetraenoic acid (2-hydroxy-ethyl)-amide]",–,100,–
"CCCCC/C=C\C/C=C\C/C=C\C/C=C\CCCC(=O)O [Arachidonic acid, cis,cis,cis,cis-5,8,11,14-Eicosatetraenoic acid]",–,48.7,–
"CCCCCC=CCC=CCC=CCC=CCCCCOC(C)=O [Arachidonyl Acetate, Acetic acid icosa-5,8,11,14-tetraenyl ester]",100,–,–
"CC/C=C\C/C=C\C/C=C\C/C=C\C/C=C\C/C=C\CCC(=O)O [Docosahexaenoic acid (DHA), cis-4,7,10,13,16,19-Docosahexaenoic Acid]",–,–,activity at 10 µM [2]: 82%
"CCCCC/C=C\C/C=C\CCCCCCCC(=O)O [Linoleic acid, cis-9,cis-12-Octadecadienoic acid]",–,–,activity at 10 µM [2]: 55%
"CC/C=C\C/C=C\C/C=C\CCCCCCCC(=O)O [Linolenic acid, cis,cis,cis-9,12,15-Octadecatrienoic acid]",–,55.5,–
"Cyclopropanecarboxylic acid icosa-5,8,11,14-tetraenylam ide [Arachidonylcyclopropylamide (ACPA)]",–,–,"% BACE Activity (10^-5 M) (comparative examples (derivatives of arachidonic acid) at 10^-5 M, mean results, remaining enzyme activity, 100% = wells without sample or inhibitor, 10 µM): 100%"

# Further lines, with some results ahead:
activity at 10 µM [1] [%],Compound,activity at 10 µM [%],other results
100,"CCCCCC=CCC=CCC=CCC=CCCCCO [Arachidonyl alcohol, Icosa-5,8,11,14-tetraen-1-ol]",–,–
100,"CCCCCC=CCC=CCC=CCC=CCCCC(=O)OCC [Ethyl arachidonate, 5,8,11,14-Eicosatetraenoic acid ethyl ester]",–,–
